Source: ChEMBL document CHEMBL5727531, “TrkA kinase inhibitors, compositions and methods thereof” (2020)
pIC50: −log10 of the molar value.

Target: High affinity nerve growth factor receptor (Homo sapiens, UniProt P04629)
Test: Biological Assay: TrkA functional activity was measured using a DiscoverX PathHunter assay. In this assay, U2OS cells express the human TrkA receptor as a fusion with the weakly complementing fragment of B-galactosidase, which DiscoverX calls Prolink (PK); additionally, Shc1 is fused with a larger fragment, which is called Enzyme Acceptor (EA). Activation of the TrkA receptor, upon NGF addition, results in the kinase domain being phosphorylated, resulting in subsequent recruitment of Shc1-EA protein. That recruitment results in an active B-galactosidase enzyme that is detected by addition of a chemiluminescent substrate. The human p75NTR protein was also expressed as a co-receptor for NGF.

Chain of High affinity nerve growth factor receptor (P04629 whole entry, the tested form may be a part): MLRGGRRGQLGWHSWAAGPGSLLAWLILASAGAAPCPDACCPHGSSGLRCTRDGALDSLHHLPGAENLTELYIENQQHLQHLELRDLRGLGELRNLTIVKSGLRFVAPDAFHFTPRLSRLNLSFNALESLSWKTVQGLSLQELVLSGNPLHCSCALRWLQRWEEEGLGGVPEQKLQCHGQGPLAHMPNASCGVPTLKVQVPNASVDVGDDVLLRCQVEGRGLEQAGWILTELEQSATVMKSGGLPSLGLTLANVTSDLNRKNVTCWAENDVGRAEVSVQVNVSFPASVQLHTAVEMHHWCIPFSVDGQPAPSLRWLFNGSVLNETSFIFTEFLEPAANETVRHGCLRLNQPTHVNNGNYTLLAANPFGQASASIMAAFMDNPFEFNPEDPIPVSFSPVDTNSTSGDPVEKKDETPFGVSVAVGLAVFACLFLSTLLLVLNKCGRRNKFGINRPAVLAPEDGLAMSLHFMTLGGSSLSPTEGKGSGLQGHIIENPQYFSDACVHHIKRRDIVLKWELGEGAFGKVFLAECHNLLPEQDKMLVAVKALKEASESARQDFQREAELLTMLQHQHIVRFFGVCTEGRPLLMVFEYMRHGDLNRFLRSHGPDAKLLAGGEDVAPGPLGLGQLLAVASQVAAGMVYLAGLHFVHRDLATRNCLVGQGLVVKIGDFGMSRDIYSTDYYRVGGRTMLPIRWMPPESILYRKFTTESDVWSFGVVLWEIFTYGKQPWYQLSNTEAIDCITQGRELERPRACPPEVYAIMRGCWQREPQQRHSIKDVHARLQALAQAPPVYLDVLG

pIC50: 7.30
SMILES: Cn1ccc(-c2cc(C(=O)Nc3c(-c4ccccc4)ccc4c(C(C)(C)O)ncn34)c(F)cc2C(F)(F)F)n1
